Measurements published in paper PMC6352954, “Benzylamides and piperazinoarylamides of ibuprofen as fatty acid amide hydrolase inhibitors” (Journal of Enzyme Inhibition and Medicinal Chemistry, 2019).

What was measured:
FAAH [1] = target: T1, FAAH (Rattus norvegicus, UniProt P97612); conditions: cited from earlier work
T1 sequence (P97612 1-579): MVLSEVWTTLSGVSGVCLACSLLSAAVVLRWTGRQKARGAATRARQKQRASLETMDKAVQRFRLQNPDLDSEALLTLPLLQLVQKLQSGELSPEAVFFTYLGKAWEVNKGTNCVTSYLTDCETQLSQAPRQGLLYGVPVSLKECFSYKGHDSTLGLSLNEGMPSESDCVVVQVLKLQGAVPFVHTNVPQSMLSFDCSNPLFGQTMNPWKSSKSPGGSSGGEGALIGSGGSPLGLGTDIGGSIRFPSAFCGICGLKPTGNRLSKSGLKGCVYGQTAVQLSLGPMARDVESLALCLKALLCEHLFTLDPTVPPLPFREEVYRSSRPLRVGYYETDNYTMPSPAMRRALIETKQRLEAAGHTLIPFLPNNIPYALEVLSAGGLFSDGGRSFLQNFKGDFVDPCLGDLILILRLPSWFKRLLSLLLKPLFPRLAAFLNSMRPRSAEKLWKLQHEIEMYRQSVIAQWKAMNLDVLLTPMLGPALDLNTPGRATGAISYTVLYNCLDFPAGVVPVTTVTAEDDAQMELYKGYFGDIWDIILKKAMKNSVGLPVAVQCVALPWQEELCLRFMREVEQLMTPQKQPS

FAAH [2] = target: T1, FAAH; assay: FAAH assay: inhibition of rat brain [3H]AEA hydrolysis; conditions: for FAAH inhibitory activity (in words): 0.5 μM [3H]AEA, rat brain homogenates
Method: Frozen (−80 °C) brains (minus cerebella) from adult Wistar or Sprague-Dawley rats were thawed and homogenised in 20 mM HEPES, 1 mM MgCl2, pH 7.0. and thereafter centrifuged at ∼35000 × g for 20 min at 4 °C. Homogenates were washed (by centrifugation at ∼35000 × g for 20 min at 4 °C followed by resuspension in the buffer) twice and incubated at 37 °C for 15 min in order to hydrolyse all endogenous FAAH substrates. After a further centrifugation, pellets were resuspended in 50 mM Tris-HCl buffer, pH 7.4, containing 1 mM EDTA and 3 mM MgCl2, and frozen at −80 °C in aliquots until used for the assay. For the FAAH assay[34] test compounds, homogenates (usually 0.5–0.8 μg protein per assay, diluted with 10 mM Tris-HCl, 1 mM EDTA pH 7.4) and 25 μL of [^3H]AEA in 10 mM Tris- HCl, 1 mM EDTA, pH 7.4, containing 1% w/v fatty acid-free bovine serum albumin, final substrate concentration of 0.5 μM) were incubated for 10 min at 37 °C (final assay volume 200 μL). Reactions were stopped by placing the tubes on ice. Final assay concentrations of the solvents used for the compounds (ethanol or DMSO) were in the range 1–5%. Activated charcoal (80 μL + 320 μL 0.5 M HCl) was added and the samples were mixed and left at room temperature for about 30 min. Following centrifugation at 2500 rpm for 10 min, aliquots (200 μL) of the supernatants were analysed for tritium content by liquid scintillation spectroscopy with quench correction. Blank values were obtained by the use of buffer rather than homogenate.
In general, FAAH assays upon three homogenates were undertaken using separate inhibitor dilution series (from a stock solution), with 6 concentrations of inhibitor in half-log concentrations (i.e. 1, 3, 10 µM etc) ranging from 0.3–100 µM. Data were expressed as % of vehicle control and analysed using the algorithm log(inhibitor) vs. response – variable slope (four parameters) built into the GraphPad Prism computer programme for the Macintosh (GraphPad Software Inc., San Diego, CA). Two different curve fits were chosen: one where the top (uninhibited) value was set to 100 and the bottom (maximum inhibition) was set to 0, and one where the top was set to 100 and the bottom allowed to float. The best model (when the bottom value returned >0) was chosen by Akaike’s informative criteria. Since the programme uses log10 inhibitor concentrations, the IC50 values for the inhibitable fraction are derived from the corresponding − log10(IC50) (pI50) values. […] In consequence, we report both pI50 and IC50 values to indicate the SE values.
The inhibition assays were performed using 0.5 μM [^3H]AEA as substrate and rat brain homogenates as the enzyme source.

[3] = parameters: method as in PMID 12767601; conditions: cited from earlier work

Cc1cccnc1NC(=O)[C@@H](C)c1ccc(CC(C)C)cc1 [(S)-IbuAM5]
FAAH inhibitory activity of (S)-enantiomer relative to (R)-enantiomer (FAAH [1]): 10 fold

CC(C)Cc1ccc(C(C)C(=O)NCc2ccccc2Cl)cc1 (centres unmarked) [Compound 11, N-(2-Chlorobenzyl)-2–(4-isobutylphenyl)propanamide]
IC50 (FAAH [2]): 4.1 µM

CC(C)Cc1ccc(C(C)C(=O)NCc2ccc(Cl)cc2Cl)cc1 (centres unmarked) [Compound 14, N-(2,4-Dichlorobenzyl)-2–(4-isobutylphenyl)propanamide]
IC50 (FAAH [2]): 21 µM

CC(C)Cc1ccc(C(C)C(=O)NCc2cc(Cl)ccc2Cl)cc1 (centres unmarked) [Compound 15, N-(2,5-Dichlorobenzyl)-2–(4-isobutylphenyl)propanamide]
IC50 (FAAH [2]): 4.4 µM

CC(C)Cc1ccc(C(C)C(=O)NCc2c(Cl)cccc2Cl)cc1 (centres unmarked) [Compound 16, N-(2,6-Dichlorobenzyl)-2–(4-isobutylphenyl)propanamide]
melting point: 130 to 135 °C | FAAH inhibitory activity (in words) (FAAH [2]): complete loss of activity

CC(C)Cc1ccc(C(C)C(=O)N2CCN(c3ccc(Cl)c(Cl)c3)CC2)cc1 (centres unmarked) [Compound 21, 1–(4-(3,4-Dichlorophenyl)piperazin-1-yl)-2–(4-isobutylphenyl)propan-1-one]
loss of FAAH inhibitory activity relative to amide 19 (FAAH [2]; 3,4-dichlorophenyl versus 3-chlorophenyl analogue): 10 fold

CC(C)Cc1ccc(C(C)C(=O)N2CCN(c3ccc(F)cc3)CC2)cc1 (centres unmarked) [Compound 22, 1–(4-(4-Fluorophenyl)piperazin-1-yl)-2–(4-isobutylphenyl)propan-1-one]
IC50 (FAAH [2]): 17 µM

Cc1ccccc1N1CCN(C(=O)C(C)c2ccc(CC(C)C)cc2)CC1 (centres unmarked) [Compound 27, 2–(4-Isobutylphenyl)-1–(4-(o-tolyl)piperazin-1-yl)propan-1-one]
FAAH inhibitory activity (in words) (FAAH [2]): loss of activity

Cc1cccnc1NC(=O)C(C)c1ccc(CC(C)C)cc1 (centres unmarked) [Ibu-AM5]
ulcerogenic potency relative to ibuprofen [3]: much lower ulcerogenic potency than ibuprofen | potency as reversible FAAH inhibitor relative to ibuprofen (FAAH [1]): two to three orders of magnitude more potent than ibuprofen
